“Also recorded” adds a separate entry of the source.
Key:
[1] = system: NMDA receptor glycine binding; details: cited from earlier work
[2] = system: recognition site presumed to be located within the ion channel of the receptor complex; details: cited from earlier work
[3] = system: [^3 H]-MK 801 binding; details: cited from earlier work
[4] = Rotorod test for drug induced neurological deficit (neurotoxicity), ip; assay type: in vivo, male Carworth Farms no. 1 mice; details: neurotoxicity, 30 min or 4 hr, 30, 100, 300 mg/kg, bracketed = maximum ineffective dose (given as >), unbracketed = effective (neurotoxic) dose (=)
Method: (§1) Biological Testing--Compounds were screened for anticonvulsant activity in male Carworth Farms no. 1 mice. The maximal electroshock (MES), subcutaneous Metrazol (pentylenetetrazole) (Met), and threshold tonic extension (TTE) tests were used to evaluate compounds for anticonvulsive activity. A rotorod protocol was used to determine neurotoxicity. Solutions for injection were prepared in 30% polyethylene glycol 400. Except for the TTE tests, animals were dosed ip at two different time periods: either 30 min. or 4 hr prior to testing. At each time period, three groups of four mice were tested at the following dose levels: 30, 100, and 300 mg/kg. This treatment protocol was followed for MES, Met, and rotorod testing.
Animals were tested for drug induced neurological deficit using a rotorod. Either 30 min. or 4 hr after treatment, the animal was placed on a 1-inch diameter knurled plastic rod rotating at 6 rpm. Neurological deficit was defined as the failure of the animal to remain on the rod for 1 min.

[5] = target: T1, glycine binding site on the NMDA receptor (Rattus norvegicus, UniProt P35439); assay: Inhibition of [^3 H]-5,7-dichlorokynurenic acid specific binding; assay type: rat (cerebral cortex membranes); details: for [^3 H]-5,7-dichlorokynurenic acid displacement: 10 uM; for remaining activity at 10 µM: 0.25 h, pH 7.4, 10 uM test compound, read-out: Inhibition of [^3 H]-5,7-Dichlorokynurenic Acid Binding, % of Control
T1 construct: Membranes were prepared from rat cerebral cortex; from tissue; host or cells: rat cerebral cortex, "buffy coat" membrane fragments
Method: Binding Studies--The procedure of Baron et al. (1991) was used to assay for the inhibition of specific binding at the glycine binding site on the NMDA receptor. The labeled ligand used in this assay was [^3 H]-5,7-dichlorokynurenic acid (15.8 Ci/mmol) from DuPont-New England Nuclear (Boston, Mass.). […] Inhibition of specific binding was determined for selected compounds at a concentration of 10 uM using "buffy coat" membrane fragments (Jones et al., 1989). Membranes were prepared from rat cerebral cortex and assays were conducted in 50 mM HEPES-KOH buffer (Sigma, St. Louis, Mo.) at pH 7.4. Membranes were incubated in a final volume of 1 mL containing 10 nM [^3 H]-5,7-dichlorokynurenic acid. Incubation was continued for 15 min. at 4° C. Nonspecific binding was determined in the presence of 1 mM glycine and subtracted. Binding was terminated by centrifugation at 48,000×g for 10 min. Each of the resultant pellets was washed rapidly with 1 mL ice water and solubilized with 1 mL of a tissue solubilizer (Solvable, DuPont NEN). The solubilized samples were each dissolved in 10 mL 3a70B Complete Counting Cocktail (RPI, Mount Prospect, Ill.). Membrane bound radioactivity was determined using a Beckman LS-5000TD liquid scintillation counter. This screening procedure was conducted in triplicate in three separate tests. Results are presented as percent of control (±SEM, standard error of the mean).

[6] = Overall in vivo activity (MES, Met, TTE, rotorod); design: species or system male Carworth Farms no. 1 mice; details: ip
Method: as §1
Maximal electroshock (MES) induced seizures were elicited with a 60 cycle alternating current of 50 mA intensity (five to seven times the intensity necessary to evoke minimal electroshock threshold seizures). Current was delivered via corneal electrodes for 0.2 sec. A drop of 0.9% saline was instilled in the eye prior to application of the electrodes. Abolition of the hindlimb tonic extension component of the seizure was defined as protection. […]
The threshold tonic extension (TTE) test is similar to the MES screen but uses a lower level of electrical current (Piredda et al., 1985). […] An ED50 value was determined from a log dose-response plot of the resulting data. […]

[7] = system: TTE seizure; assay: Threshold tonic extension (TTE) test, ip; assay type: in vivo, male Carworth Farms no. 1 mice; details: for minimal effective dose at 100 mg/kg: ip 100 mg/kg, 1/4 to 4 hr post treatment, 12.5 mA, bracketed = maximum ineffective dose (given as >), unbracketed = effective dose (=), read-out: TTE: effective or [maximum ineffective] intraperitoneal dose
Method: as §1
The threshold tonic extension (TTE) test is similar to the MES screen but uses a lower level of electrical current (Piredda et al., 1985). The lower current makes the test more sensitive but less discriminate than the MES screen. Twenty mice were pretreated ip with 100 mg/kg of the test compound. At time intervals of 1/4, 1/2, 1, 2, and 4 hr post treatment, 4 mice were challenged with 12.5 mA of electrical current for 0.2 sec. via corneal electrodes. This current produces a TTE seizure in untreated animals. Protection was defined as an absence of seizures. Additional TTE testing was conducted on compound 10 to determine the ED50 value for the observed protective effect. In this case, 6 groups containing either 8 or 16 animals were injected ip and tested two hours following treatment. Each group received a specified dose ranging from 20-500 mg/kg. An ED50 value was determined from a log dose-response plot of the resulting data.

[8] = system: MES induced seizures; assay: Maximal electroshock (MES) anticonvulsant test, ip; assay type: in vivo, male Carworth Farms no. 1 mice
Method: as §1
Maximal electroshock (MES) induced seizures were elicited with a 60 cycle alternating current of 50 mA intensity (five to seven times the intensity necessary to evoke minimal electroshock threshold seizures). Current was delivered via corneal electrodes for 0.2 sec. A drop of 0.9% saline was instilled in the eye prior to application of the electrodes. Abolition of the hindlimb tonic extension component of the seizure was defined as protection.

[9] = system: GABA-A neuroreceptor; assay: [^3 H]-muscimol competition binding; assay type: rat (cerebral cortex membranes); details: 5 nM [^3 H]-muscimol, compound 10 uM to 10 nM
Method: Compound 10 was screened for activity at the GABA-A neuroreceptor complex using [^3 H]-muscimol (20.0 Ci/mmol), also from DuPont-New England Nuclear. The filtration method reported by Williams and Risley (1979) was used for this assay. Membranes were initially prepared as described previously and frozen at -20° C. in distilled water for 24 hr. After thawing, membranes were resuspended in 50 mM Tris-acetate buffer (pH 7.0) which contained 0.1% (v/v) saponin (Sigma). The tissue was centrifuged at 48,000×g for 20 min. and the resulting pellet was resuspended in 30 volumes of 50 mM Tris-acetate buffer (pH 7.0) containing 100 mM KCI. The tissue was again centrifuged at 48,000×g for 20 min. After decanting the supernatant, the pellet was covered with fresh KCI containing Tris-acetate buffer and frozen for 24 hr.
On the day of the assay, the tissue was thawed and resuspended in 30 volumes of 50 mM Trisacetate (pH 7.0) with 100 mM KCI and centrifuged at 48,000×g for 20 min. This washing procedure was repeated twice. The final pellet was resuspended in 32 mL buffer. Membranes were incubated in a final volume of 1 mL with 5 nM [^3 H]-muscimol at 4° C. for 30 min. Samples were run in triplicate employing six different concentrations of compound 10 ranging from 10 uM to 10 nM. The assay was performed in duplicate. Each sample, including controls, contained 1.0% dimethyl sulfoxide (DMSO) to insure solubilization of the test compound. Nonspecific binding was determined in the presence of 200 uM gamma-aminobutyric acid (GABA) and subtracted. Binding was terminated using a Brandel M-24C cell harvester employing rapid filtration through GF/C glass fiber filters presoaked in 0.1% (v/v) polyethylenimine. Filters were washed with 1 mL cold water. Radioactivity bound to the filters was determined by scintillation counting.

[10] = system: NMDA-associated PCP binding site; assay: [^3 H]-TCP binding displacement; assay type: rat (cerebral cortex membranes)
Method: Compound 10 was also screened for activity at the NMDA-associated PCP binding site, and, additionally, for activity at the GABA-A neuroreceptor. To determine possible effects on PCP binding, N-(1-(2-thienyl)cyclohexyl)-3,4-[^3 H]-piperidine ("[^3 H]-TCP") binding was assayed using the technique of Johnson et al. (1988). TCP is the thienyl derivative of PCP. Binding of [^3 H]-TCP to the NMDA receptor complex can be modulated by glycine agonists and antagonists (Benavides et al., 1988). DuPont-New England Nuclear was the source for [^3 H]-TCP (44.5 Ci/mmol). Membranes were prepared as described above. Assays were conducted in 5 mM Tris-acetate (pH 7.4) buffer containing 10 uM L-glutamic acid and 3 uM glycine. […] Nonspecific binding was determined in the presence of 30 uM PCP and subtracted. Samples were incubated at 24° C. for 1 hr. Binding was terminated using a Brandel M-24C cell harvester employing rapid filtration through GF/C glass filters presoaked in 0.1%(v/v)polyethylenimine. Filters were washed rapidly with two 1 mL aliquots of ice-cold water. Samples were run in triplicate at six different drug concentrations ranging from 1 uM to 5 nM. The experiment was repeated with buffer containing 0.1 mM L-glu and no added glycine. Two separate assays were conducted for each experiment.

[11] = target: glycine binding site on the NMDA receptor; details: [^3 H]-labeled ligand; cited from earlier work
[12] = 10 nM radioligand, pH 7.4, mean ± SEM of three determinations

For O=C(O)c1cc(O)c2ccc(Cl)cc2n1 [7-chlorokynurenic acid], the “inhibition of glycine binding” value [1] is listed as “competitive inhibitor of glycine binding”, the “effect on binding of phencyclidine-like compounds” value [2] is listed as “decrease binding” and the “effect at 1 uM on [^3 H]-MK 801 binding” value ([3]; 1 uM) is listed as “little effect”. The IC50 ([3]; [^3 H]-MK 801, depending on brain region, read-out: IC50 (inhibition concentration)) was 30 to 40 µM.

In the case of CCN(CC)C(=O)Nc1cc(C(=O)OC)nc2cc(Cl)cc(Cl)c12 [Compound 1], the “Rotorod: effective or [maximum ineffective] intraperitoneal dose” value [4] is reported as over 300 mg/kg, the “[^3 H]-5,7-dichlorokynurenic acid displacement” value [5] is reported as “active” and the remaining activity at 10 µM [5, 12] is reported as 58 ± 8%. For the same molecule, the “in vivo / CNS anticonvulsant activity” value [6] was “no in vivo activity; also recorded: no CNS activity; also recorded: did not have any in vivo effects”.

For CCOC(=O)c1cc(NC(=O)N(C)C)c2c(Cl)cc(Cl)cc2n1 [Compound 4], the “Rotorod: effective or [maximum ineffective] intraperitoneal dose” value [4] was over 300 mg/kg, the “[^3 H]-5,7-dichlorokynurenic acid displacement” value [5] was “active” and the remaining activity at 10 µM [5, 12] was 57 ± 1%. For the same molecule, the “in vivo / CNS anticonvulsant activity” value [6] was “no in vivo activity; also recorded: no CNS activity; also recorded: did not have any in vivo effects” and the minimal effective dose at 100 mg/kg ([7]; Mus musculus) was over 100 mg/kg.

For CN(C)C(=O)Nc1cc(C(=O)O)nc2cc(Cl)cc(Cl)c12 [Compound 5], the “MES activity” value [8] was “demonstrated activity” and the “Rotorod: effective or [maximum ineffective] intraperitoneal dose” value [4] was over 300 mg/kg.

For COC(=O)c1cc(NC(=O)N(c2ccccc2)c2ccccc2)c2c(Cl)cc(Cl)cc2n1 [Compound 10, 2-methyl carboxylate-5,7-dichloro-4-[[(diphenylamino)-carbonyl]amino]-quinoline], the “effect on [^3 H]-muscimol binding (GABA-A)” value (“effect … (GABA-A)” below) [9] was “No significant difference from control; also recorded: no effect; also recorded: No significant effects were observed”, the “effect … (GABA-A)” value ([9]; listed as 2-methyl carboxylate-5,7-dichloro4-[[(diphenylamino)-carbonyl]amino]-quinoline) was “tested negative” and the “effect … (GABA-A)” value ([9]; listed as 2-methyl carboxylate-5,7-dichloro-4-[[(diphenylamino)-carbonyl]amino]-quinoline) was “No significant effects were observed”. For the same molecule, the “Rotorod: effective or [maximum ineffective] intraperitoneal dose” value [4] was over 300 mg/kg, the “Inhibition of [^3 H]-5,7-Dichlorokynurenic Acid Binding, % of Control” value ([5]; 10 uM test compound, 10 nM radioligand, pH 7.4, mean ± SEM of three determinations, 15 min, 10 µM) was 42 % of Control and the remaining activity at 10 µM [5, 12] was 42 ± 7%. The “effect on [^3 H]-TCP binding” value ([10]; 10 uM L-glutamic acid and 3 uM glycine, compound 1 uM to 5 nM) was “No significant effect”, the “effect on [^3 H]-TCP binding” value ([10]; 10 uM L-glutamic acid and 3 uM glycine, compound 1 uM to 5 nM, listed as 2-methyl carboxylate-5,7-dichloro-4-[[(diphenylamino)-carbonyl]amino]-quinoline) was “No significant effect” and the “effect on [^3 H]-TCP binding” value ([10]; L-glutamate, no added glycine, compound 5 uM to 10 nM) was “no significant effect”. The “PCP activity at the NMDA receptor” value ([10]; summary statement) was “tested negative”, the ED50 ([7]; Mus musculus, 2 h, ip, two hours following treatment, doses 20-500 mg/kg) was 134 mg/kg and the minimal effective dose at 100 mg/kg ([7]; Mus musculus) was 100 mg/kg. The “S.E. of slope of TTE dose-response” value ([7]; log dose-response plot, ip) was 0.44 and the “slope of TTE dose-response” value ([7]; log dose-response plot, ip) was 1.9.

For COc1cccc(N(C(=O)Nc2cc(C(=O)O)nc3cc(Cl)cc(Cl)c23)c2ccccc2)c1 [Compound 12], the “MES activity” value [8] was “demonstrated activity” and the “Rotorod: effective or [maximum ineffective] intraperitoneal dose” value [4] was over 300 mg/kg.

In the case of O=C(O)c1cc(O)c2c(Cl)cc(Cl)cc2n1 [[^3 H]-5,7-dichlorokynurenic acid], the Kd [11] is given as 0.029 µM.
